Legend:
[1] = molecular target: T1, CXCR1 (Homo sapiens, UniProt P25024); assay: Migration of CHO-K1 cells expressing CXCR1; type: cell-based; details: CHO-K1 cells expressing CXCR1, 2 hours; degree similar to IL-8; FIG. 3
T1 construct: cDNA fragments encompassing chemokine receptor coding regions; expressed in transfected cells; host or cells: CHO-K1 (ATCC CCL-61), transient transfection
T1 sequence (P25024 1-350): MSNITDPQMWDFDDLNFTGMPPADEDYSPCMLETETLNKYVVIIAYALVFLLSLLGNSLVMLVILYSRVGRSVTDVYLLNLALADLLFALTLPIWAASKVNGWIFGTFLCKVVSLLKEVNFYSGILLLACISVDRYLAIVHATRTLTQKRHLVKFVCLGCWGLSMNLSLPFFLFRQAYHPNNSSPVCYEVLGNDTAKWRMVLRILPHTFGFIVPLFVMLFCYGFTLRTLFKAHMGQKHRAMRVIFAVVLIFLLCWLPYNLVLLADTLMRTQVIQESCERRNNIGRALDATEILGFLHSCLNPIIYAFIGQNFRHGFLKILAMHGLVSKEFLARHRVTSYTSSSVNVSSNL
Description: (§1) CHO-K1 cells were obtained from American Type Culture Collection (CCL-61) and cultured in Ham's F12 media supplemented with 10% heat inactivated FBS and 100 μg/ml penicillin/streptomycin. cDNA fragments encompassing chemokine receptor coding regions were obtained from cDNAs synthesized from HL-60 cells and/or human peripheral blood mononuclear cells by the polymerase chain reaction. Expression constructs of chemokine receptors were generated by cloning PCR fragments into expression vector pEF6/V5-TOPO (K9610-20, Invitrogen). Transient transfections were carried out with Fugene 6 transfection reagent (1814443, Roche Applied Science) according to the manufacturer's instructions.
(§2) The CHO-chemokine receptor cells were used in migration assays 36 hours following transfection. In vitro migration assays were performed using a Neuroprobe Blindwell migration apparatus (AA12, Neuro Probe, Inc./16008 Industrial Drive, Gaithersburg, Md. 20877) according to the manufacturer's instructions with slight modifications. […]
(§3) Following the migration assays, migrated cells that had adhered to the underside of the filter were quantitated according to the manufacturer's instructions. […] Stained filtered were mounted onto microscope slides and migrated cells in each well were manually counted under 40× magnification.

[2] = molecular target: T2, CX3CR1 (Homo sapiens, UniProt P49238); assay: Migration of CHO-K1 cells expressing CX3CR1; type: cell-based; details: CHO-K1 cells expressing CX3CR1, 2 hours; FIG. 3
T2 construct: cDNA fragments encompassing chemokine receptor coding regions; expressed in transfected cells; host or cells: CHO-K1 (ATCC CCL-61), transient transfection
T2 sequence (P49238 1-355): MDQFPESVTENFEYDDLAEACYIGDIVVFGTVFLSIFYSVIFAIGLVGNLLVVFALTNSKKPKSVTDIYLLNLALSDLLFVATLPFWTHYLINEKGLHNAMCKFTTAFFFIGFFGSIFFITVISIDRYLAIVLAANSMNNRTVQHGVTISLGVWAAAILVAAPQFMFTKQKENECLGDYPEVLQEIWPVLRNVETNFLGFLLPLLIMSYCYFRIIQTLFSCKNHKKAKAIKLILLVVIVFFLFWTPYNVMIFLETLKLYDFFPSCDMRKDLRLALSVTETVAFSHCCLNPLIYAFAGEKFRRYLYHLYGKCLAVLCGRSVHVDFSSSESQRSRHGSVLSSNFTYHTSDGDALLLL
Description: as §1, §2, §3

[3] = system: C57BL/6J mice model of EAE; assay: C57BL/6J mice model of experimental autoimmune encephalomyelitis (EAE), prevention paradigm; type: in vivo, mouse
[4] = molecular target: T3, CXCR3 (Homo sapiens, UniProt P49682); assay: Migration of CHO-K1 cells expressing CXCR3; type: cell-based; set-up: cDNA fragments encompassing chemokine receptor coding regions; expressed in transfected cells; host or cells: CHO-K1 (ATCC CCL-61), transient transfection; details: CHO-K1 cells expressing CXCR3, 2 hours; FIG. 3
T3 sequence (P49682 1-368): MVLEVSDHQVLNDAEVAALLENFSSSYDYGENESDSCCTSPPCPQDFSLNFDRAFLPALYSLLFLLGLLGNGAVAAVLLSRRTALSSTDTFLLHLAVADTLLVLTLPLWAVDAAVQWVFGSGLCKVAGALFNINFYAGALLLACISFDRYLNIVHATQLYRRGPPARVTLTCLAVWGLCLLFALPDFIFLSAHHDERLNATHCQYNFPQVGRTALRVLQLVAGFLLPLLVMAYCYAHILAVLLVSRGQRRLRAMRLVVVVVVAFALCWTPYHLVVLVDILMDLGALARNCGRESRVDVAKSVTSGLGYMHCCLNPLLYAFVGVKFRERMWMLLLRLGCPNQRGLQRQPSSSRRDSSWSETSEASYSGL
Description: as §1, §2, §3

induction of cell migration [1]: induced migration
induction of cell migration [2]: induced migration
induction of cell migration [4]: induced migration
Compound: CC(C)(C)c1cc(/C=[N+](\[O-])C(C)(C)C)cc(C(C)(C)C)c1O [Compound 1, α-(4-hydroxy-3,5-di-tert-butylphenyl)-N-tert-butylnitrone]
reversal of EAE-associated weight loss ([3]; 10 mg/kg oral once a day, FIG. 10): significant effect on reversal
tissue infiltration score (spinal cord, H&E) ([3]; 10 mg/kg vs Vehicle, Day 26, failing to reach statistical significance (p=0.0513), FIG. 11): lower infiltration score than control mice
maximum disease score ([3]; oral gavage once a day from 7 days before induction, Days 9-26, FIG. 8): significant effect
cumulative disease score ([3]; oral gavage once a day from 7 days before induction, Days 9-26, FIG. 9): significant effect
disease severity (average clinical scores) ([3]; oral gavage once a day, 0.3, 1, 3, 10 mg/kg from 7 days before induction, vs Vehicle, FIG. 7): significant reduction

Source: patent US20050215646A1, “Methods for treating multiple sclerosis and pharmaceutical compositions therefor” (Renovis, Inc., priority 2004, published 2005)
